Literature values in patent US7863273B2, “Process for the preparation of an optically active 5H-pyrrolo [3,4-B] pyrazine derivative” (Glenmark Generics Ltd., priority 2006, dated 2011).

Key:
writhing reflex = conditions: relative to zopiclone (racemate)
[1] = not given; remark: listed apart in the source
[2] = test system: central benzodiazepine receptor sites; conditions: relative to zopiclone (racemate)
[3] = test system: pentetrazol-induced convulsions; conditions: relative to zopiclone (racemate)

Row | SMILES | potency of action: writhing reflex test in mice (writhing reflex) | toxicity as compared to the racemate | activity as compared to the racemate [1] | potency of action: affinity for central benzodiazepine receptor sites [2] | potency of action: antagonist activity with respect to pentetrazol-induced convulsions [3]
1 | CN1CCN(C(=O)O[C@@H]2c3nccnc3C(=O)N2c2ccc(Cl)cn2)CC1 (single isomer, unassigned) [laevorotatory isomer] | almost inactive | more toxic than the racemate | almost inactive | almost inactive | almost inactive
2 | CN1CCN(C(=O)O[C@H]2c3nccnc3C(=O)N2c2ccc(Cl)cn2)CC1 [dextrorotatory isomer, (+)-(5S)-6-(chloropyridin-2-yl)-7-oxo-6,7-dihydro-5H-pyrrol[3,4-b]pyrazin-5-yl 4-methylpiperazine-1-carboxylate] | approximately twice as active | lower toxicity | approximately twice as active | approximately twice as active | approximately twice as active
